The source of these data is patent US12331093B2, “Fusion polypeptides for metabolic disorders” (BEIJING QL BIOPHARMACEUTICAL CO., LTD., priority 2021, dated 2025).

Assay [1] is described as follows: Food intake and body weight reduction in DIO mice. The class given is in vivo, C57BL/6 mice. The settings on record: 10 nmol/kg QD. The method, then:
22 week old DIO male C57BL/6 mice (˜50 g) were injected once every other day (Q2D) subcutaneously with designated GLP-1 polypeptide conjugates (i.e., Molecule 012) for 25 days. Food intake and body weight were measured twice a week and fasting blood glucose was measured once a week. Five animals were used for each treatment group. Body weight and fasting blood glucose was monitored for each individual animal, but food intake for each group animals was measured together. Day 1 and Day 25 are first day and last day of molecule dosage. Data are indicated as mean values and standard error (SEM) or pooled values. Statistical analysis was performed by One-way ANOVA. Body weight reduction on Day 25 is calculated by −1*(% BW loss−% BW loss of vehicle group); Cumulative food intake reduction is calculated by −100*(cumulative food intake−cumulative food intake of vehicle)/cumulative food intake of vehicle.

The target of assay [2] is T1, human beta-Klotho (Homo sapiens, UniProt Q86Z14).
T1 construct: expressed in transfected cells; host or cells: HEK293 cell line
The assay is described as follows: In vitro FGF21 activity, p-ERK levels in HEK293 cell line overexpressing human beta-Klotho. The class given is cell-based. The settings on record: compared with YH-dual. As for the experimental part:
The in vitro FGF21 activities of the fusion protein were assessed using a HEK293 cell line overexpressing human beta-Klotho. Tested fusion protein conjugates were measured at 400 nM top concentration with 4-fold serial dilutions in the presence of 1% HSA. After cells were treated with fusion protein conjugates for 12 mins, p-ERK levels were measured by p-ERK kit (Cisbio, 64ERKPEH).
The activity of each fusion protein was represented by EC50, derived from non-linear regression analysis.

The nature of assay [3]: Metabolic parameters in DIO animal model, 21 days. The class given is in vivo, C57BL/6 mice. To be noted: DIO mice, QD subcutaneously, FIG. 4B. The method, then:
16 week old DIO male C57BL/6 mice (35˜40 g) were injected once daily (QD) subcutaneously with designated GLP-1/FGF21 conjugates (i.e., MLC #9, MLC #14, MLC #16 and MLC #17) for 21 days. Food intake and body weight were measured once everyday and non-fasting blood glucose was measured once every three days. Five animals were used for each treatment group. Body weight and blood glucose was monitored for each individual animal, but food intake for each group of animals was measured together. Day 1 and Day 21 are first day and last day respectively of the treatment. Terminal blood was collected and EDTA-K3 plasma was prepared and frozen at −80° C. for biomarker measurement (LDL-C, TC, TG, ALT, insulin, adiponectin). Liver and adipose tissue were also collected and frozen in liquid nitrogen and store at −80° C. Data are indicated as mean values and standard error (SEM) or pooled values. Statistical analysis was performed by One-way ANOVA. Body weight reduction on Day 21 is calculated by −1*(% BW loss−% BW loss of vehicle group); Cumulative food intake reduction is calculated by −100*(cumulative food intake−cumulative food intake of vehicle)/cumulative food intake of vehicle.

In the case of “Control#2: GLP1(del7-8, 22E, 36G)-(GAQP)5-ALB8-(GAQP)10-FGF21 (121Q, 168L, 171G, 180E), SEQ ID NO: 72, GLP1 dead [reference compound]”, in assay [1], the “Body weight reduction (% reduction compared to vehicle) (Day 11)” value is 21.7% and the “Cumulative food intake reduction (% reduction compared to vehicle) (Day 11)” value is 19.1%.
Consider “Control#6: GLP1(del7-8, 22E, 36G)-(GAQP)5-ALB8-(GAQP)-FGF21 (121Q, 168L, 171G, 180E), SEQ ID NO: 78, GLP1 dead [reference compound]”, for which, in assay [1], the “Body weight reduction (% reduction compared to vehicle) (Day 11)” value is 24.6% and the “Cumulative food intake reduction (% reduction compared to vehicle) (Day 11)” value was 13.1%. Moreover, the “FGF21 efficacy (FIGS. 2A and 2B)” value in assay [2] is “significantly higher FGF21 efficacy than YH-dual”.
In turn, Semaglutide [reference compound] gave a non-fasting glucose level in assay [3] of 7.5 to 10 mmol/L.
